Calls of active or inactive are those of the source. No cut-off for these calls is given here. Bridge positions count the residues as written; N and C are the ends. Peptide text beside a SMILES is read from it.
Experiments:
LX-2 = assay: Anti-fibrotic activity in human LX2 cells assessed as reduction in COL1alpha expression by measuring relative inhibition rate measured after 24 hrs incubation by Western blot analysis relative to control; assay type: functional; design: concentration or dose not given beside the values
Mus musculus [1] = assay: In vivo anti-fibrotic activity against CCl4-induced liver fibrosis C57BL/6J mouse model assessed as decrease in COL1alpha at 150 to 300 microg/kg once daily for 3 weeks by IHC staining based assay; assay type: functional, organism-based; conditions: dose 150-300 µg/kg
Mus musculus [2] = assay: In vivo anti-fibrotic activity against CCl4-induced liver fibrosis C57BL/6J mouse model assessed as liver function by measuring decrease in serum hydroxyproline (HYP) at 150 to 300 microg/kg once daily for 3 weeks by bio-chemical analysis; assay type: functional, organism-based; conditions: dose 150-300 µg/kg
Mus musculus [3] = assay: In vivo anti-fibrotic activity against CCl4-induced liver fibrosis C57BL/6J mouse model assessed as liver function by measuring decrease in serum amino-transferase (ALT) at 150 to 300 microg/kg once daily for 3 weeks by bio-chemical analysis; assay type: functional, organism-based; conditions: dose 150-300 µg/kg
Mus musculus [4] = assay: In vivo anti-fibrotic activity against CCl4-induced liver fibrosis C57BL/6J mouse model assessed as liver function by measuring decrease in hydroxyproline (HYP) at 150 to 300 microg/kg once daily for 3 weeks by Western blot analysis; assay type: functional, organism-based; conditions: dose 150-300 µg/kg
Mus musculus [5] = assay: In vivo anti-fibrotic activity against CCl4-induced liver fibrosis C57BL/6J mouse model assessed as liver function by measuring decrease in amino-transferase (ALT) at 150 to 300 microg/kg once daily for 3 weeks by Western blot analysis; assay type: functional, organism-based; conditions: dose 150-300 µg/kg
Mus musculus [6] = assay: In vivo anti-fibrotic activity against CCl4-induced liver fibrosis C57BL/6J mouse model assessed as reduction in […] mRNA level at 150 to 300 microg/kg once daily for 3 weeks by RT-qPCR analysis; assay type: functional, organism-based; conditions: dose 150-300 µg/kg
Mus musculus [7] = assay: In vivo anti-fibrotic activity against CCl4-induced liver fibrosis C57BL/6J mouse model assessed as reduction in Acta2 mRNA level at 150 to 300 microg/kg once daily for 3 weeks by RT-qPCR analysis; assay type: functional, organism-based; conditions: dose 150-300 µg/kg
Mus musculus [8] = assay: In vivo anti-fibrotic activity against CCl4-induced liver fibrosis C57BL/6J mouse model assessed as reduction in oxidative stress by measuring decrease in lipid oxidation product MDA at 150 to 300 microg/kg once daily for 3 weeks by enzyme activity assay; assay type: functional, organism-based; conditions: dose 150-300 µg/kg
Mus musculus [9] = assay: In vivo anti-fibrotic activity against CCl4-induced liver fibrosis C57BL/6J mouse model assessed as reduction in oxidative stress by measuring increase in superoxide dismutase at 150 to 300 microg/kg once daily for 3 weeks by enzyme activity assay; assay type: functional, organism-based; conditions: dose 150-300 µg/kg
Mus musculus [10] = assay: In vivo anti-fibrotic activity against CCl4-induced liver fibrosis C57BL/6J mouse model assessed as reduction in hepatocyte apoptosis at 300 microg/kg once daily for 3 weeks by TUNEL assay; assay type: functional, organism-based; conditions: dose 300.0 µg/kg
Mus musculus [11] = assay: In vivo anti-fibrotic activity against CCl4-induced liver fibrosis C57BL/6J mouse model assessed as reduction in hepatocyte apoptosis by measuring decrease in BAX protein level at 300 microg/kg once daily for 3 weeks by TUNEL assay; assay type: functional, organism-based; conditions: dose 300.0 µg/kg
Mus musculus [12] = assay: In vivo anti-fibrotic activity against CCl4-induced liver fibrosis C57BL/6J mouse model assessed as reduction in hepatocyte apoptosis by measuring increase in BAX protein in cytoplasm at 300 microg/kg once daily for 3 weeks; assay type: functional, organism-based; conditions: dose 300.0 µg/kg
Mus musculus [13] = assay: In vivo anti-fibrotic activity against CCl4-induced liver fibrosis C57BL/6J mouse model assessed as increase in anti-apoptotic protein BCL2 level at 300 microg/kg once daily for 3 weeks by Western blot analysis; assay type: functional, organism-based; conditions: dose 300.0 µg/kg
Mus musculus [14] = assay: In vivo anti-fibrotic activity against CCl4-induced liver fibrosis C57BL/6J mouse model assessed as decrease in pro-apoptotic protein BIM level at 300 microg/kg once daily for 3 weeks by Western blot analysis; assay type: functional, organism-based; conditions: dose 300.0 µg/kg
Mus musculus [15] = assay: In vivo anti-fibrotic activity against CCl4-induced liver fibrosis C57BL/6J mouse model assessed as decrease in pro-apoptotic protein caspase-8 level at 300 microg/kg once daily for 3 weeks by Western blot analysis; assay type: functional, organism-based; conditions: dose 300.0 µg/kg
Mus musculus [16] = assay: In vivo anti-fibrotic activity against methionine and choline-deficient (MCD) diet-induced liver fibrosis C57BL/6J mouse model assessed as decrease in inflammatory infiltration and collagen deposition at 150 to 300 microg/kg once daily for 3 weeks by H and E staining based assay; assay type: functional, organism-based; conditions: dose 150-300 µg/kg
Mus musculus [17] = assay: In vivo anti-fibrotic activity against methionine and choline-deficient (MCD) diet-induced liver fibrosis C57BL/6J mouse model assessed as decrease in inflammatory infiltration and collagen deposition at 150 to 300 microg/kg once daily for 3 weeks by ORO staining based assay; assay type: functional, organism-based; conditions: dose 150-300 µg/kg
Mus musculus [18] = assay: In vivo anti-fibrotic activity against methionine and choline-deficient (MCD) diet-induced liver fibrosis C57BL/6J mouse model assessed as reduction in inflammation by measuring decrease in CD68 inflammation marker at 150 to 300 microg/kg once daily for 3 weeks by IHC staining based assay; assay type: functional, organism-based; conditions: dose 150-300 µg/kg
Mus musculus [19] = assay: Reduction in fatty acid synthesis related gene expression in methionine and choline-deficient (MCD) diet-induced liver fibrosis C57BL/6J mouse model assessed as reduction in SCD1 mRNA level at 150 to 300 microg/kg once daily for 3 weeks by qPCR analysis; assay type: functional, organism-based; conditions: dose 150-300 µg/kg
Mus musculus [20] = assay: Reduction in fatty acid synthesis related gene expression in methionine and choline-deficient (MCD) diet-induced liver fibrosis C57BL/6J mouse model assessed as reduction in FAS mRNA level at 150 to 300 microg/kg once daily for 3 weeks by qPCR analysis; assay type: functional, organism-based; conditions: dose 150-300 µg/kg
Mus musculus [21] = assay: Induction of fatty acid beta-oxidation related gene expression in methionine and choline-deficient (MCD) diet-induced liver fibrosis C57BL/6J mouse model assessed as increase in ACOX mRNA level at 150 to 300 microg/kg once daily for 3 weeks by qPCR analysis; assay type: functional, organism-based; conditions: dose 150-300 µg/kg
Mus musculus [22] = assay: Induction of fatty acid beta-oxidation related gene expression in methionine and choline-deficient (MCD) diet-induced liver fibrosis C57BL/6J mouse model assessed as increase in MCAD mRNA level at 150 to 300 microg/kg once daily for 3 weeks by qPCR analysis; assay type: functional, organism-based; conditions: dose 150-300 µg/kg
Mus musculus [23] = assay: Induction of fatty acid beta-oxidation related gene expression in methionine and choline-deficient (MCD) diet-induced liver fibrosis C57BL/6J mouse model assessed as increase in LCAD mRNA level at 150 to 300 microg/kg once daily for 3 weeks by qPCR analysis; assay type: functional, organism-based; conditions: dose 150-300 µg/kg
Mus musculus [24] = assay: Induction of fatty acid beta-oxidation related gene expression in methionine and choline-deficient (MCD) diet-induced liver fibrosis C57BL/6J mouse model assessed as increase in PPARalpha mRNA level at 150 to 300 microg/kg once daily for 3 weeks by qPCR analysis; assay type: functional, organism-based; conditions: dose 150-300 µg/kg
Mus musculus [25] = assay: In vivo anti-fibrotic activity against methionine and choline-deficient (MCD) diet-induced liver fibrosis C57BL/6J mouse model assessed as reduction in hepatocyte apoptosis at 150 to 300 microg/kg once daily for 3 weeks by TUNEL assay; assay type: functional, organism-based; conditions: dose 150-300 µg/kg
Mus musculus [26] = assay: In vivo anti-fibrotic activity against methionine and choline-deficient (MCD) diet-induced liver fibrosis C57BL/6J mouse model assessed as reduction in oxidative stress by measuring decrease in lipid oxidation product MDA at 150 to 300 microg/kg once daily for 3 weeks by enzyme activity assay; assay type: functional, organism-based; conditions: dose 150-300 µg/kg
Mus musculus [27] = assay: In vivo anti-fibrotic activity against methionine and choline-deficient (MCD) diet-induced liver fibrosis C57BL/6J mouse model assessed as reduction in oxidative stress by measuring increase in superoxide dismutase at 150 to 300 microg/kg once daily for 3 weeks by enzyme activity assay; assay type: functional, organism-based; conditions: dose 150-300 µg/kg

CC[C@H](C)[C@@H]1NC(=O)[C@H]([C@@H](C)O)NC(=O)[C@@H]2CCCN2C(=O)[C@H](CO)NC(=O)[C@H](CC(N)=O)NC(=O)[C@H](CCCCN)NC(=O)[C@H](CCCCN)NC(=O)[C@@H](N)CSSC[C@@H](C(=O)O)NC1=O (H-CKKNSPTIC-OH; disulfide 1-9)
Activity (LX-2): 40% | Activity (Mus musculus [1]): Active | Activity (Mus musculus [2]): Active | Activity (Mus musculus [3]): Active | Activity (Mus musculus [4]): Active | Activity (Mus musculus [5]): Active | Activity (Mus musculus [6]): Active | Activity (Mus musculus [7]): Active | Activity (Mus musculus [8]): Active | Activity (Mus musculus [9]): Active | Activity (Mus musculus [10]): Active | Activity (Mus musculus [11]): Active | Activity (Mus musculus [12]): Active | Activity (Mus musculus [13]): Active | Activity (Mus musculus [14]): Active | Activity (Mus musculus [15]): Active | Activity (Mus musculus [16]): Active | Activity (Mus musculus [17]): Active | Activity (Mus musculus [18]): Active | Activity (Mus musculus [19]): Active | Activity (Mus musculus [20]): Active | Activity (Mus musculus [21]): Active | Activity (Mus musculus [22]): Active | Activity (Mus musculus [23]): Active | Activity (Mus musculus [24]): Active | Activity (Mus musculus [25]): Active | Activity (Mus musculus [26]): Active | Activity (Mus musculus [27]): Active

Reference: ChEMBL document CHEMBL5523746, “Discovery of Novel Peptide Antagonists Targeting GPR55 for Liver Inflammation and Fibrosis” (2024)
